What was measured:
[1] = system: oxaliplatin-injected B6 mice; assay: Oxaliplatin-induced neuropathic pain, mechanical allodynia (Von Frey test); assay type: in vivo, mouse; conditions: PID 3, 30 min after treatment, equi-antinociceptive doses
Description: To induce neuropathic pain, each B6 mouse was intraperitoneally injected with either oxaliplatin (3.0 mg/kg), or vehicle (saline) after habituation to the test environment and baseline measurements of pain sensitivity. […] To induce cancer pain, each B6 mouse was injected with either 20 μL phosphate-buffered saline or cells (6×10^5 cells/20 μL phosphate-buffered saline) in the footpad of the right hind paw under isoflurane anesthesia on post-inoculation day 0. On post-inoculation day 19, i.e., the test day, mice were placed on a mesh floor with 5×5 mm holes, covered with a cup to prevent visual stimulation, and allowed to adapt for 1 h prior to testing. […] The tests were initiated with 0.5 g force. Briefly, whenever a withdrawal response occurred, the next weaker von Frey filament was applied. On the other hand, whenever no withdrawal response occurred, the next stronger filament was applied. Mechanical allodynia was defined as changes in the amount of pressure to induce the hind paw withdrawal.
This treatment paradigm was followed to produce neuropathic pain mice.

human mu-opioid receptor = target: T1, human mu-opioid receptor (Homo sapiens, UniProt P35372); assay: cell-based; assay type: cell-based
T1 construct: expressed in transfected cells; host or cells: HEK-293 (HEK-MOR), kept under G418
T1 sequence (P35372 whole entry): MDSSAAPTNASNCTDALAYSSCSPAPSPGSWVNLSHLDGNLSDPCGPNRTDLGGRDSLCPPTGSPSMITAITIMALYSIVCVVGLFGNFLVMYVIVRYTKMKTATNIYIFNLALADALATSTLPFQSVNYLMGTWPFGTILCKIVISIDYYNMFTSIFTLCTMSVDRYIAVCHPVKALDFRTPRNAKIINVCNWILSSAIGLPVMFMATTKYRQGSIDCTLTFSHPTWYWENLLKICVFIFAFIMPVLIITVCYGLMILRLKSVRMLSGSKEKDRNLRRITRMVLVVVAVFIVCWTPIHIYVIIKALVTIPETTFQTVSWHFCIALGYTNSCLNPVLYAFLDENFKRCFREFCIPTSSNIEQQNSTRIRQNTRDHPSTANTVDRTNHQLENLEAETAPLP
Description: Cells (72,000 per well) were plated in 100 μl/well of DMEM in 96-well solid-bottom white plates (GIBCO) and 50 μl/well of drug in HBSS in the presence of forskolin and 3-isobutyl-1-methylxanthine at final concentrations of 1 μM and 500 μM, respectively. After 30 min of incubation at room temperature, the concentration of cyclic adenosine monophosphate was determined using a LANCE Ultra cAMP Assay kit (PerkinElmer).
As MOR belongs to the GPCR family, activation of MOR leads to a decrease in intracellular cAMP level.

B6 mice = assay: Respiratory function test; conditions: acute, equi-antinociceptive doses, 10-60 min
MOR = MOR (Homo sapiens, UniProt P35372); assay: cell-based; set-up: host or cells: CHO-K1 (CHO-K1-MOR)
Sequence of MOR (P35372 whole entry, the tested form may be a part): as the sequence (P35372 whole entry) above
Description: The PathHunter G protein-coupled receptor β-arrestin-2 assay (DiscoveRx) was performed according to the manufacturer's protocol. Briefly, when β-arrestin-2 translocates to the active receptor, complementary β-galactosidase fragments fused to the receptor and β-arrestin-2 interact to form a functional enzyme, which can be detected by chemiluminescence.
Cells (5,000 per well) were then seeded in black 384-well assay plates with a CP2 reagent (DiscoveRx) and incubated for 24 h before running the assay. After each treatment, cells were incubated at room temperature for 1.5 h, followed by the addition of 8 μl of the PathHunter Detection reagent (DiscoveRx) and incubated for 1 h. Luminescence was detected using a Victor 2 plate reader. Studies were performed on the same day and the same passage of cells was used to ensure accurate comparisons of data.
Opioid receptors have been reported to couple to G protein-independent β-arrestin-2-mediated pathways. […] The potency of the above three molecules in a β-arrestin-2 recruitment assay (PathHunter), which was based on enzyme complementation in Chinese hamster ovary (CHO)-K1 cells expressing human MOR (CHO-K1-MOR), was further examined.

[2] = system: melanoma cell-implanted B6 mice; assay: Cancer-induced pain, cold allodynia (acetone drop test); assay type: in vivo, mouse; conditions: PID18, 30 min after treatment
Description: In cancer-induced pain model, cold allodynia in mice was assessed by using the acetone test. Absolute acetone (100%) in a volume of 5 μL was placed on the base of the paw in mice. […]
The cold allodynia was tested using acetone drop test and mechanical allodynia was measured using the Von Frey test to examine the antinociceptive effects of each drug treatment.

## CN1CCc2ccccc2C1CNC(=O)c1ccc(Cl)c(Cl)c1 (centres unmarked) [Compound 67, 3,4-Dichloro-N-[(2-methyl-1,2,3,4-tetrahydro-1-isoquinolinyl)methyl]benzamide]
[1]
  antinociceptive effect in oxaliplatin-induced sensory allodynia: comparable to that of morphine
Human mu-opioid receptor
  EC50: 0.63 nM
  cAMP production: significantly decreased cAMP production
B6 mice
  respiratory frequency: kept recovery of respiratory frequency after 30 min
MOR
  EC50: 1900 nM
  Emax of β-arrestin recruitment relative to morphine: 3 fold
  β-arrestin recruitment, comparison: more β-arrestin recruitment than that in morphine but induced less β-arrestin recruitment than Met-5
[2]
  licking and shaking frequency: less than that of morphine

— US10597378B2 (priority 2017, dated 2020)
